In patent US10870646B2, “Oxazolidinones and pharmaceutical compositions thereof for treating bacterial infections, including infection of Mycobacterium tuberculosis” (University of St. Thomas, priority 2017, dated 2020):
Values after ≈ are worked out from the molar mass of the structure shown. Like-named read-outs stand apart in the source and are kept apart here.

Assays:
[1] = test system: Mycobacterium tuberculosis 124R; test: MIC90 broth macrodilution; type: cell-based
Mtb = type: cell-based, Mycobacterium tuberculosis
[2] = test system: Mycobacterium tuberculosis 115R; test: MIC90 broth macrodilution; type: cell-based
[3] = test system: Mycobacterium tuberculosis H37Rv; test: MIC90 broth macrodilution; type: cell-based

Row | Structure (SMILES) | MIC90 [1] [µg/mL] | frequency of spontaneous mutations that confer resistance (Mtb) | MIC90 [2] [µg/mL] | activity against growth (in words) [3] | MIC90 ([1]; read-out: MIC90) [µg/mL] | MIC90 ([2]; read-out: MIC90) [µg/mL]
1 | CC(=O)NC[C@H]1CN(c2ccc3c(c2)Oc2ccccc2O3)C(=O)O1 [Compound T145] | 0.5 to 1 (≈ 1.47 to 2.94 µM) | 4.0×10^−8 | 0.5 to 1 (≈ 1.47 to 2.94 µM) | potent activity | – | –
2 | COc1cccc2c1Oc1ccc(N3C[C@H](CNC(C)=O)OC3=O)cc1O2 [Compound T197, (S)—N-((3-(6-methoxydibenzo[b,e][1,4]dioxin-2-yl)-2-oxooxazolidin-5-yl)methyl)acetamide] | – | – | – | – | 4 to 8 (≈ 10.8 to 21.6 µM) | 8 to 16 (≈ 21.6 to 43.2 µM)
3 | CC(=O)NC[C@H]1CN(c2ccc(N3CCOCC3)c(F)c2)C(=O)O1 [Linezolid, reference compound] | – | – | – | – | 0.25 to 0.5 (≈ 0.741 to 1.48 µM) | 0.25 to 0.5 (≈ 0.741 to 1.48 µM)
4 | C[C@@H](O)[C@H]1C(=O)N2C(C(=O)O)=C(S[C@@H]3CN[C@H](C(=O)N(C)C)C3)[C@H](C)[C@H]12 [Meropenem, reference compound] | – | – | – | – | 8 to 16 (≈ 20.9 to 41.7 µM) | 8 to 16 (≈ 20.9 to 41.7 µM)
